From patent US20130245028A1, “TREATMENT OF CANCER WITH TOR KINASE INHIBITORS” (SIGNAL PHARMACEUTICALS, LLC, priority 2012, published 2013)

Key:
[1] = test system: PC3 and PC3-ERG prostate cancer cells; assay: Clonogenic growth inhibition assay for ETS positive and ETS negative lines; type: cell-based; conditions: PC3 vs PC3-ERG (ETS overexpression); FIG. 1A-C
From the text: Clonogenic Assay: Growth Inhibition Assay for ETS Positive and ETS Negative Lines. […] Then, cells were washed three times with PBS, trypsinized, and replated onto 6 well plates at desired cell densities. Every 3 days the media was replaced with fresh media containing compound. After typically 10-18 days, the cells were fixed and surviving colonies were stained with 0.1% crystal violet and counted by Image Quant (BD biosciences).

[2] = test system: ETS-positive (VCaP and LNCaP) and ETS-negative (PC3 and DU145) prostate cancer cell lines; assay: Caspase 3/7-Glo apoptosis assay for ETS positive and ETS negative lines; type: cell-based; conditions: single treatment, 48 hours; FIG. 2
Protocol: Caspase Analysis: Apoptosis Assay for ETS Positive and ETS Negative Lines. […] Cells were then directly seeded at desired densities to the Compound 1-spotted 384-well plates. Cells were cultured for 48 hours at 37° C./5% CO2 and were assessed via Caspase 3/7-Glo (Promega Corporation, Madison, Wis.) and read for luminescence.

[3] = test system: LNCaP, VCaP, DU145 or PC3 prostate cancer cell lines; assay: Matrigel cell invasion assay for ETS positive and ETS negative lines; type: cell-based; conditions: 10 μM, 48 hours treatment; FIG. 3
Protocol: Cell Invasion Assay for ETS Positive and ETS Negative Lines. […] Then cells were tripsinized and re-seeded onto BD biocoat matrigel invasion chamber insert with […] of a 24-well culture plate in serum free media. Cells were then attracted to the lower chamber by the addition of complete media as a chemoattractant. After 48 hours incubation at 37° C./5% CO2, the non-invading cells and EC matrix were gently removed with a cotton swab. Invasive cells, which were located on the lower side of the membrane, were stained with crystal violet, air dried and photographed (FIG. 3).

[4] = test system: ETS positive prostate cancer cells (VCAP and LNCAP); assay: COMET DNA damage assay; type: cell-based; conditions: FIG. 4
From the text: DNA Damage Assays: COMET Assay.

LNCaP-HR tumor = assay: Castration-resistant LNCaP (LNCaP-HR) prostate cancer in vivo xenograft model; conditions: castrated male SCID mice, oral QD up to 15 days, 1 to 5 mg/kg; FIG. 5
Protocol: Castration-Resistant LNCaP (LNCaP-HR) Prostate Cancer In Vivo Xenograft Model A xenograft study was conducted with castration resistant LNCaP-HR tumor-bearing mice. Castrated male SCID mice were inoculated subcutaneously with LNCaP-HR cells in the flank region above the right hind leg. Following inoculation of animals, the tumors were allowed to grow to about 325 mm^3 prior to randomization. On Day 26 following tumor cell inoculation, the mice bearing LNCaP-HR tumors ranging between 98 and 530 mm^3 were pooled together and randomized into various treatment groups. […] The positive control MDV-3100 (50 mg/kg, Q4D) was administered via oral route. MDV-3100 was formulated in 1% CMC, 0.1% Tween 80 and 5% dimethyl sulfoxide (DMSO) in water (as a suspension). Tumors were measured twice a week using calipers and tumor volumes were calculated using the formula of W2×L/2 (wherein “W” is tumor width and “L” is tumor length). Statistical analysis was performed using a one-way analysis of variance (ANOVA) followed by Dunnett's post-hoc comparison with the vehicle-treated control group.

1-ethyl-7-(2-methyl-6-(1H-1,2,4-triazol-3-yl)pyridin-3-yl)-3,4-dihydropyrazino[2,3-b]pyrazin-2(1H)-one [Compound 1]
clonogenic growth inhibition (surviving colonies) [1]: ETS overexpression sensitizes PC3 cells to inhibition
Caspase activity (apoptosis) [2]: increased apoptosis in ETS positive cell lines
cell invasion [3]: reduced cell invasion
DNA damage (COMET tail moments) [4]: potentiates DNA damage in ETS positive cells
LNCaP-HR prostate cancer tumor growth (LNCaP-HR tumor): significantly inhibited
